Experiment: xn = mol fraction of the nth substance listed
Settings: Liquid

ClCCBr [1-bromo-2-chloroethane] + CCOC(C)=O
Settings | mass density [kg/m3]
288.15 K, 101.33 kPa, x1 = 0.108 | 984.97
288.15 K, 101.33 kPa, x1 = 0.1985 | 1051.71
288.15 K, 101.33 kPa, x1 = 0.2997 | 1128.56
288.15 K, 101.33 kPa, x1 = 0.3988 | 1205.99
288.15 K, 101.33 kPa, x1 = 0.5008 | 1288.67
288.15 K, 101.33 kPa, x1 = 0.5477 | 1327.76
288.15 K, 101.33 kPa, x1 = 0.6462 | 1412.26
288.15 K, 101.33 kPa, x1 = 0.7653 | 1518.63
288.15 K, 101.33 kPa, x1 = 0.803 | 1553.45
288.15 K, 101.33 kPa, x1 = 0.905 | 1650.02
288.15 K, 101.33 kPa, x1 = 1 | 1744.36
298.15 K, 101.33 kPa, x1 = 0.108 | 972.55
298.15 K, 101.33 kPa, x1 = 0.1985 | 1039.06
298.15 K, 101.33 kPa, x1 = 0.2997 | 1115.49
298.15 K, 101.33 kPa, x1 = 0.3988 | 1192.41
298.15 K, 101.33 kPa, x1 = 0.5008 | 1274.57
298.15 K, 101.33 kPa, x1 = 0.5477 | 1313.32
298.15 K, 101.33 kPa, x1 = 0.6462 | 1397.28
298.15 K, 101.33 kPa, x1 = 0.7653 | 1503.13
298.15 K, 101.33 kPa, x1 = 0.803 | 1537.71
298.15 K, 101.33 kPa, x1 = 0.905 | 1634.03
298.15 K, 101.33 kPa, x1 = 1 | 1727.88
298.15 K, 200 kPa, x1 = 0.2995 | 1115.91
298.15 K, 200 kPa, x1 = 0.5013 | 1278.27
298.15 K, 200 kPa, x1 = 0.6994 | 1442.43
298.15 K, 500 kPa, x1 = 0.2995 | 1116.35
298.15 K, 600 kPa, x1 = 0.6994 | 1443.12
298.15 K, 700 kPa, x1 = 0.5013 | 1278.85
298.15 K, 1100 kPa, x1 = 0.6994 | 1443.6
298.15 K, 1200 kPa, x1 = 0.2995 | 1117.05
298.15 K, 1200 kPa, x1 = 0.5013 | 1279.48
298.15 K, 2100 kPa, x1 = 0.2995 | 1118.11
298.15 K, 2100 kPa, x1 = 0.5013 | 1280.34
298.15 K, 2100 kPa, x1 = 0.6994 | 1444.65
298.15 K, 2900 kPa, x1 = 0.6994 | 1445.74
298.15 K, 3000 kPa, x1 = 0.2995 | 1119.13
298.15 K, 3000 kPa, x1 = 0.5013 | 1281.5
298.15 K, 4000 kPa, x1 = 0.2995 | 1120.19
298.15 K, 4000 kPa, x1 = 0.5013 | 1282.56
298.15 K, 4100 kPa, x1 = 0.6994 | 1447.07
298.15 K, 5000 kPa, x1 = 0.2995 | 1121.32
298.15 K, 5000 kPa, x1 = 0.5013 | 1283.71
298.15 K, 5100 kPa, x1 = 0.6994 | 1448.15
298.15 K, 5800 kPa, x1 = 0.2995 | 1122.17
298.15 K, 5800 kPa, x1 = 0.6994 | 1448.98
298.15 K, 5900 kPa, x1 = 0.5013 | 1284.8
298.15 K, 7000 kPa, x1 = 0.5013 | 1285.84
298.15 K, 7000 kPa, x1 = 0.6994 | 1450.32
298.15 K, 7100 kPa, x1 = 0.2995 | 1123.21
298.15 K, 7700 kPa, x1 = 0.6994 | 1451.09
298.15 K, 7900 kPa, x1 = 0.2995 | 1124.37
298.15 K, 8000 kPa, x1 = 0.5013 | 1286.92
298.15 K, 8600 kPa, x1 = 0.2995 | 1125.17
298.15 K, 8700 kPa, x1 = 0.5013 | 1287.86
298.15 K, 8800 kPa, x1 = 0.6994 | 1452.5
298.15 K, 10100 kPa, x1 = 0.2995 | 1126.71
298.15 K, 10100 kPa, x1 = 0.5013 | 1289.28
298.15 K, 10300 kPa, x1 = 0.6994 | 1454.22
298.15 K, 11700 kPa, x1 = 0.2995 | 1128.38
298.15 K, 12000 kPa, x1 = 0.5013 | 1291.48
298.15 K, 12000 kPa, x1 = 0.6994 | 1456.29
298.15 K, 13700 kPa, x1 = 0.5013 | 1293.44
298.15 K, 13800 kPa, x1 = 0.2995 | 1130.67
298.15 K, 14000 kPa, x1 = 0.6994 | 1458.57
298.15 K, 15500 kPa, x1 = 0.5013 | 1295.42
298.15 K, 15900 kPa, x1 = 0.2995 | 1132.71
298.15 K, 15900 kPa, x1 = 0.6994 | 1460.86
298.15 K, 17400 kPa, x1 = 0.6994 | 1462.58
298.15 K, 17700 kPa, x1 = 0.2995 | 1134.48
298.15 K, 17900 kPa, x1 = 0.5013 | 1298.2
298.15 K, 19200 kPa, x1 = 0.6994 | 1464.86
298.15 K, 19700 kPa, x1 = 0.2995 | 1136.76
298.15 K, 19800 kPa, x1 = 0.5013 | 1300.25
308.15 K, 101.33 kPa, x1 = 0.108 | 959.03
308.15 K, 101.33 kPa, x1 = 0.1985 | 1024.94
308.15 K, 101.33 kPa, x1 = 0.2997 | 1100.59
308.15 K, 101.33 kPa, x1 = 0.3988 | 1177.02
308.15 K, 101.33 kPa, x1 = 0.5008 | 1258.55
308.15 K, 101.33 kPa, x1 = 0.5477 | 1296.96
308.15 K, 101.33 kPa, x1 = 0.6462 | 1380.36
308.15 K, 101.33 kPa, x1 = 0.7653 | 1485.56
308.15 K, 101.33 kPa, x1 = 0.803 | 1519.81
308.15 K, 101.33 kPa, x1 = 0.905 | 1615.55
308.15 K, 101.33 kPa, x1 = 1 | 1708.86

ClCCCl [1,2-dichloroethane] + CCOC(C)=O
Settings | mass density [kg/m3]
288.15 K, 101.33 kPa, x1 = 0.1036 | 936.39
288.15 K, 101.33 kPa, x1 = 0.2054 | 966.98
288.15 K, 101.33 kPa, x1 = 0.3019 | 996.99
288.15 K, 101.33 kPa, x1 = 0.4003 | 1028.99
288.15 K, 101.33 kPa, x1 = 0.4963 | 1061.48
288.15 K, 101.33 kPa, x1 = 0.602 | 1098.83
288.15 K, 101.33 kPa, x1 = 0.682 | 1128.5
288.15 K, 101.33 kPa, x1 = 0.8002 | 1174.96
288.15 K, 101.33 kPa, x1 = 0.9001 | 1216.19
288.15 K, 101.33 kPa, x1 = 1 | 1260.13
298.15 K, 101.33 kPa, x1 = 0.1036 | 924.54
298.15 K, 101.33 kPa, x1 = 0.2054 | 954.82
298.15 K, 101.33 kPa, x1 = 0.3019 | 984.84
298.15 K, 101.33 kPa, x1 = 0.4003 | 1016.64
298.15 K, 101.33 kPa, x1 = 0.4963 | 1048.95
298.15 K, 101.33 kPa, x1 = 0.602 | 1086.09
298.15 K, 101.33 kPa, x1 = 0.682 | 1115.64
298.15 K, 101.33 kPa, x1 = 0.8002 | 1161.78
298.15 K, 101.33 kPa, x1 = 0.9001 | 1202.79
298.15 K, 101.33 kPa, x1 = 1 | 1246.59
298.15 K, 200 kPa, x1 = 0.2995 | 983.88
298.15 K, 200 kPa, x1 = 0.5013 | 1046.97
298.15 K, 200 kPa, x1 = 0.6994 | 1120.18
298.15 K, 500 kPa, x1 = 0.2995 | 984.27
298.15 K, 600 kPa, x1 = 0.5013 | 1047.36
298.15 K, 600 kPa, x1 = 0.6994 | 1120.72
298.15 K, 1100 kPa, x1 = 0.5013 | 1047.97
298.15 K, 1200 kPa, x1 = 0.2995 | 985.01
298.15 K, 1200 kPa, x1 = 0.6994 | 1121.21
298.15 K, 2100 kPa, x1 = 0.5013 | 1049.05
298.15 K, 2100 kPa, x1 = 0.6994 | 1122.19
298.15 K, 2300 kPa, x1 = 0.2995 | 986.02
298.15 K, 2900 kPa, x1 = 0.2995 | 986.78
298.15 K, 3000 kPa, x1 = 0.6994 | 1122.99
298.15 K, 3200 kPa, x1 = 0.5013 | 1050.04
298.15 K, 3900 kPa, x1 = 0.5013 | 1050.82
298.15 K, 4000 kPa, x1 = 0.2995 | 987.78
298.15 K, 4000 kPa, x1 = 0.6994 | 1124.04
298.15 K, 4800 kPa, x1 = 0.5013 | 1051.57
298.15 K, 4800 kPa, x1 = 0.6994 | 1124.91
298.15 K, 5000 kPa, x1 = 0.2995 | 988.82
298.15 K, 5900 kPa, x1 = 0.2995 | 989.64
298.15 K, 6100 kPa, x1 = 0.5013 | 1052.93
298.15 K, 6100 kPa, x1 = 0.6994 | 1126.11
298.15 K, 6900 kPa, x1 = 0.2995 | 990.62
298.15 K, 7000 kPa, x1 = 0.6994 | 1126.84
298.15 K, 7100 kPa, x1 = 0.5013 | 1053.82
298.15 K, 7800 kPa, x1 = 0.2995 | 991.51
298.15 K, 7800 kPa, x1 = 0.5013 | 1054.57
298.15 K, 8000 kPa, x1 = 0.6994 | 1127.94
298.15 K, 8600 kPa, x1 = 0.2995 | 992.31
298.15 K, 8800 kPa, x1 = 0.6994 | 1128.76
298.15 K, 9000 kPa, x1 = 0.5013 | 1055.76
298.15 K, 9800 kPa, x1 = 0.5013 | 1056.47
298.15 K, 9900 kPa, x1 = 0.2995 | 993.71
298.15 K, 9900 kPa, x1 = 0.6994 | 1129.84
298.15 K, 11700 kPa, x1 = 0.2995 | 995.34
298.15 K, 11900 kPa, x1 = 0.5013 | 1058.45
298.15 K, 12000 kPa, x1 = 0.6994 | 1131.77
298.15 K, 13700 kPa, x1 = 0.6994 | 1133.5
298.15 K, 13800 kPa, x1 = 0.2995 | 997.35
298.15 K, 13800 kPa, x1 = 0.5013 | 1060.29
298.15 K, 15600 kPa, x1 = 0.6994 | 1135.23
298.15 K, 15900 kPa, x1 = 0.2995 | 999.26
298.15 K, 15900 kPa, x1 = 0.5013 | 1062.3
298.15 K, 17700 kPa, x1 = 0.6994 | 1137.32
298.15 K, 17900 kPa, x1 = 0.2995 | 1001.14
298.15 K, 18000 kPa, x1 = 0.5013 | 1064.25
298.15 K, 19400 kPa, x1 = 0.2995 | 1002.51
298.15 K, 19600 kPa, x1 = 0.6994 | 1139.1
298.15 K, 19900 kPa, x1 = 0.5013 | 1065.99
308.15 K, 101.33 kPa, x1 = 0.1036 | 911.53
308.15 K, 101.33 kPa, x1 = 0.2054 | 941.7
308.15 K, 101.33 kPa, x1 = 0.3019 | 971.32
308.15 K, 101.33 kPa, x1 = 0.4003 | 1002.93
308.15 K, 101.33 kPa, x1 = 0.4963 | 1035.07
308.15 K, 101.33 kPa, x1 = 0.602 | 1071.98
308.15 K, 101.33 kPa, x1 = 0.682 | 1101.3
308.15 K, 101.33 kPa, x1 = 0.8002 | 1147.08
308.15 K, 101.33 kPa, x1 = 0.9001 | 1187.86
308.15 K, 101.33 kPa, x1 = 1 | 1231.27
